{"source": "patent US20120220554A1", "about": "“Combretastatins for Prevention of Posterior Capsule Opacification” (OXIGENE, INC., priority 2010, published 2012)", "key": {"Phosphorylated p38": {"system": "Phosphorylated p38", "test": "Phosphorylated p38 level", "type": "cell-based, bovine", "settings": "CA4P treatment (data not shown)", "method": "Phospho-Erk ½ levels were elevated immediately after the end of CA4P exposure in both control and treated cells and decreased 1 h after the end of CA4P exposure in both control and treated cells (FIG. 7). […] Therefore, it could be hypothesized that, in primary cells, a general stress response due to dissection will mask CA4P's effect on Erk phosphorylation. Phosphorylated p38 and JNK levels were not affected by CA4P treatment (data not shown)."}, "BIE cells": {"system": "BIE cells", "test": "Ki67 immunofluorescence (cell proliferation) in BIE cells", "type": "cell-based, bovine", "method": "BMI-immortalized bovine lens epithelial cells (BIE cell line, produced in Roy Quinlan's Laboratory, University of Durham, UK), were seeded onto 13 mm round coverslips in 6-well tissue culture plates in 10% fetal calf serum (FCS)-supplemented tissue culture medium (Sigma-Aldrich, UK) and kept at 37° C., 5% CO2 overnight. The next morning, they were exposed to 1 μM CA4P diluted in 10% FCS-supplemented medium for 30 min, after which the cells were returned to 10% FCS-supplemented medium. After 48 h, the prevalence of Ki67 positive cells was assessed by immunofluorescence.\nBIE cells on coverslips were rinsed three times in PBS, followed by a single 20 min fixation in a 1:1 mix of methanol and acetone, three rinses in PBS/0.2 g/L BSA/0.2 g/L Na Azide and a single 20 min blocking step in 10% goat serum (Sigma-Aldrich, UK) diluted in PBS/BSA/NaAzide. The cells were then exposed to primary antibody (Ki-67: mouse monoclonal, 1/100, MIB-1 (DAKO, Denmark)) for 1 h at room temperature, after which they were rinsed three times in PBS/BSA/NaAzide and exposed to secondary antibody (goat anti-mouse IgG FITC-conjugated, 1/100; DAPI, 1/1000 (Sigma-Aldrich, UK)) for 1 h at room temperature in the dark. After three last rinses in PBS/BSA/NaAzide, the cells were plated onto microscope slides (VWR International, Belgium) and examined using a Zeiss LSM 510 Meta confocal microscope and its associated software. Ki-67 positive cells were counted out of a total of between 200 and 500 cells per coverslip, for two coverslips for each of three independent repeats, and expressed as the average percentage of Ki-67 positive cells out of the total number of cells counted (as determined by DAPI staining). Significant differences between control and treated cells were assessed by Chi^2-test."}, "[1]": {"system": "Primary bovine lens epithelial cells", "test": "Primary bovine lens epithelial cells on the lens capsule, serum-free, continuous exposure: cell number and morphology", "type": "cell-based", "method": "Primary bovine lens epithelial cells were cultured in serum-free conditions, survival factors being released from the lens capsule. Paclitaxel or combretastatin A-4 phosphate was added to the culture to a final concentration of 10 nM, 100 nM or 10 μM. Cell number was determined for each capsule at 48 h and 96 h after addition of the test agent. Two capsules were taken per treatment and cell numbers averaged after being expressed as a percentage of 48 h value. This indicates the increase/decrease in cell number within a 48 h time period (i.e. from 48 h to 96 h), normalized as a percentage. Independent T-test P value between CA4P control and 10 μM is 0.0002.\nBy light microscopy, CA4P has a dramatic effect upon cell morphology, retaining the cobblestone characteristic of the lens epithelium, when in the control cultures the lens cells have begun to trans-differentiate actinsm/desmin positive cells and migrate off the capsule. Pictures were taken from live primary bovine cells on the lens capsule with FujiFinepix (FIG. 3)."}, "ERK 1/2 (p42 and p44)": {"system": "ERK 1/2 (p42 and p44)", "test": "Erk 1/2 phosphorylation immunoblot in primary lens epithelial cells", "type": "cell-based, bovine", "settings": "primary cells after dissection; 30 min 1 mM CA4P; immediately and 1 h after end of exposure (FIG. 7)", "text": "Bovine eyes were obtained from Coast and County Meat Group (Felling, UK) on the day of culling and lenses were dissected out of the eyes under a sterile tissue culture hood as described below. After generous dousing in 70% ethanol, eyes were cut open using a major surgical blade (Swann-Morton, UK) via a single cut, parallel and posterior to the cornea-conjunctiva limit. The eye was then inverted and the vitreous removed. The lens was freed from the ciliary fibers and immediately placed anterior face down in a SYLGARD-covered (Dow Corning, Germany) well of a 12-well tissue culture plate (Greiner Bio-One, UK). The posterior side of the lens capsule was cut in a Y-shape fashion by a thin scalpel and the resulting flaps pulled back and pinned onto the SYLGARD. […]\nImmediately after dissection, primary lens epithelial cells were exposed for 30 min to 1 mM CA4P diluted in 0% FCS medium, after which they were returned to 0% FCS-supplemented medium. […] After total protein quantification of the extracts by Bicinchoninic Acid (BCA) assay (ThermoScientific, UK), 20 μg of extract were loaded per lane of a 12% acrylamide denaturing gel, which was run at 200V for 40 min, followed by blotting onto a nitrocellulose membrane at 0.8 mA/cm^2 for 2 h and blocking in either milk (Erk 1/2) or BSA (GAPDH) in TTBS (0.2% Tween (vol/vol), 150 mM NaCl, 20 mM Tris.HCl pH 7.4) for 1 h at room temperature. […]"}, "[2]": {"settings": "48 h after 30 min exposure to 1 μM CA4P"}}, "data": [{"compound": "COc1ccc(/C=C\\c2cc(OC)c(OC)c(OC)c2)cc1OP(=O)(O)O", "note": "[CA4P, combretastatin A-4 phosphate]", "values": [{"measurement": "Phosphorylated p38 levels", "setting": "Phosphorylated p38", "result": "not affected"}, {"measurement": "nuclear morphology", "setting": "BIE cells; 30 h after exposure (data not shown)", "result": "changes in nuclear morphology, as well as multinucleated cells were detected"}, {"measurement": "Ki67 negative (%)", "setting": "BIE cells; [2]", "result": "85.1 ± 5.7", "unit": "%"}, {"measurement": "Ki67 positive (%)", "setting": "BIE cells; [2]", "result": "14.9 ± 5.7", "unit": "%"}, {"measurement": "cell loss", "setting": "BIE cells; by 48 h after exposure", "result": "cell loss is extensive"}, {"measurement": "decline in cell number, compared with paclitaxel", "setting": "[1]; 10 nM, 100 nM or 10 μM, cell number at 48 h and 96 h, over a 96 hour exposure (FIG. 1, FIG. 2)", "result": "more effective than paclitaxel at inducing a decline in cell number"}, {"measurement": "cell morphology by light microscopy", "setting": "[1]; CA4P 10 μM, live primary bovine cells on the lens capsule, 48 and 96 h (FIG. 3)", "result": "show only epithelial sheets with the typical cobblestone appearance of the lens epithelium"}, {"measurement": "Erk phosphorylation", "setting": "ERK 1/2 (p42 and p44)", "result": "not affected"}]}]}
